target: Endothelial lipase (EL) (Homo sapiens (Human), UniProt Q9Y5X9); test: Endothelial lipase (EL) enzymatic assay with fluorescent substrate A10070 in DMPG vesicles; format: biochemical; details: not given
Summary of the method: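 EL from conditioned medium of HT-1080 cells engineered to overexpress endogenous EL; HL partially purified from conditioned medium of HL-overexpressing COS cells. Enzyme preincubated with compound 30 min at 37° C in 50 mM HEPES pH 8.0, 50 mM NaCl, 1 mM CaCl2; DMPG vesicles carrying FRET substrate (0.11 mole fraction) then added.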

Sequence of Endothelial lipase (EL) (Q9Y5X9 21-500): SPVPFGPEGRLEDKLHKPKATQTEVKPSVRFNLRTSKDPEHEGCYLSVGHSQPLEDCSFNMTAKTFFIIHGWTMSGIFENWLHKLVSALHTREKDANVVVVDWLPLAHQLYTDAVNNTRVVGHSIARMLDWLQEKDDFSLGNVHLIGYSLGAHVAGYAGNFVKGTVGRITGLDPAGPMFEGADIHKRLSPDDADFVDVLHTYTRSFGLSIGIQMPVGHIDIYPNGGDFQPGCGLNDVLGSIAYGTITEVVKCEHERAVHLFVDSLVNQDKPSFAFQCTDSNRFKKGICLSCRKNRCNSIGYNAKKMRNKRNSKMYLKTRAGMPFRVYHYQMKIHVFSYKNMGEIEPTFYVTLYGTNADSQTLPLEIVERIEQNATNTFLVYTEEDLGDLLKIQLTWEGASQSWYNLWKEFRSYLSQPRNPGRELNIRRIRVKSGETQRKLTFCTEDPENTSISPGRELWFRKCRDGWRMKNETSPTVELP

SMILES	IC50 [nM]
CS(=O)(=O)C(C(=O)NCC(=O)NC1CC1)c1nc2cc(F)c(-c3cccc4c3CC(=O)N4)cc2s1 (stereo not shown) [Example 371, N-[(cyclopropyl-carbamoyl)methyl]-2-[5-fluoro-6-(2-oxo-2,3-dihydro-1H-indol-4-yl)-1,3-benzothiazol-2-yl]-2-methanesulfonyl-acetamide]	5
Cc1cc(-c2cc3nc(C(C(=O)NCC(=O)NC4CC4)S(C)(=O)=O)sc3cc2F)cnn1 (stereo not shown) [Example 361, N-[(cyclopropyl-carbamoyl)methyl]-2-[6-fluoro-5-(6-methylpyridazin-4-yl)-1,3-benzothiazol-2-yl]-2-methanesulfonyl-acetamide]	26
CCOc1ncccc1-c1ccc2sc(C(C(=O)NCC(=O)NC3CC3)S(=O)(=O)CCOC)nc2c1 (stereo not shown) [Example 87, N-[(cyclopropyl-carbamoyl)methyl]-2-[5-(2-ethoxypyridin-3-yl)-1,3-benzothiazol-2-yl]-2-(2-methoxyethane-sulfonyl) acetamide]	346
O=C(CNC(=O)C(c1nc2cc(F)c(-c3ccc(-n4cccn4)cc3)cc2s1)S(=O)(=O)CCC(F)(F)F)NC1CC1 (stereo not shown) [Example 138, N-[(cyclopropyl-carbamoyl)methyl]-2-{5-fluoro-6-[4-(1H-pyrazol-1-yl)phenyl]-1,3-benzothiazol-2-yl}-2-(3,3,3-trifluoropropane-sulfonyl) acetamide]	6
O=C(CNC(=O)C(c1nc2cc(-c3ccc(F)nc3)ccc2s1)S(=O)(=O)Cc1ccccc1)NC1CC1 (stereo not shown) [Example 14, N-[(cyclopropyl-carbamoyl)methyl]-2-[5-(6-fluoropyridin-3-yl)-1,3-benzothiazol-2-yl]-2-phenylmethane-sulfonylacetamide]	23
COCCS(=O)(=O)C(C(=O)NCC(=O)NCCOCc1ccccc1)c1nc2ccc(-c3ccc(F)nc3)cc2s1 (stereo not shown) [Example 377, N-({[2-(benzyloxy)ethyl]carbamoyl}methyl)-2-[6-(6-fluoropyridin-3-yl)-1,3-benzothiazol-2-yl]-2-(2-methoxyethane-sulfonyl)acetamide]	1
COCCS(=O)(=O)C(C(=O)NCC(=O)NC1CC1)c1nc2ccc(-c3cncc(Cl)c3)cc2s1 (stereo not shown) [Example 304]	52
COCCS(=O)(=O)C(C(=O)NCC(=O)NC1CC1)c1nc2cc(-c3cnc(F)cc3C)ccc2s1 (stereo not shown) [Example 81, N-[(cyclopropyl-carbamoyl)methyl]-2-[5-(6-fluoro-4-methylpyridin-3-yl)-1,3-benzothiazol-2-yl]-2-(2-methoxyethane-sulfonyl) acetamide]	58
O=C(CNC(=O)C(c1nc2cc(-c3ccc(F)nc3)ccc2s1)S(=O)(=O)Cc1ccc(F)nc1)NC1CC1 (stereo not shown) [Example 15, N-[(cyclopropyl-carbamoyl)methyl]-2-[5-(6-fluoropyridin-3-yl)-1,3-benzothiazol-2-yl]-2-[(6-fluoropyridin-3-yl)methanesulfonyl] acetamide]	29
COCCS(=O)(=O)C(C(=O)NCC(=O)NC1CC1)c1nc2cc(-c3ccnc(F)c3)ccc2s1 (stereo not shown) [Example 76, N-[(cyclopropyl-carbamoyl)methyl]-2-[5-(2-fluoropyridin-4-yl)-1,3-benzothiazol-2-yl]-2-(2-methoxyethane-sulfonyl)acetamide]	32
COCCS(=O)(=O)C(C(=O)NCC(=O)NC1CC1)c1nc2ccc(-c3ccc(-c4nnc(C)o4)cc3)cc2s1 (stereo not shown) [Example 101, N-[(cyclopropyl-carbamoyl)methyl]-2-(2-methoxyethane-sulfonyl)-2-{6-[4-(5-methyl-1,3,4-oxadiazol-2-yl)phenyl]-1,3-benzothiazol-2-yl} acetamide]	9
O=C(CNC(=O)C(c1nc2cc(-c3ccc(NC(=O)OCc4ccccc4)cc3)c(F)cc2s1)S(=O)(=O)CCC(F)(F)F)NC1CC1 (stereo not shown) [Example 9, benzyl N-{4-[2-({[(cyclopropyl-carbamoyl)methyl]carbamoyl} (3,3,3-trifluoro-propanesulfonyl)methyl)-6-fluoro-1,3-benzothiazol-5-yl]phenyl} carbamate]	1
COCCS(=O)(=O)C(C(=O)NCC(=O)NC1CC1)c1nc2cc(-c3ccc(NC(C)=O)cc3)ccc2s1 (stereo not shown) [Example 106, N-[(cyclopropyl-carbamoyl)methyl]-2-[5-(4-acetamidophenyl)-1,3-benzothiazol-2-yl]-2-(2-methoxyethane-sulfonyl)acetamide]	30
CC(=O)N(C)c1ccc(-c2cc3sc(C(C(=O)NCC(=O)NC4CC4)S(C)(=O)=O)nc3cc2F)cc1 (stereo not shown) [Example 31, N-[(cyclopropyl-carbamoyl)methyl]-2-{5-fluoro-6-[4-(N-methylacetamido)phenyl]-1,3-benzothiazol-2-yl}-2-methanesulfonyl-acetamide]	11
Cc1ncc(-c2ccc3sc(C(C(=O)NCC(=O)NC4CC4)S(C)(=O)=O)nc3c2F)cn1 (stereo not shown) [Example 126, N-[(cyclopropyl-carbamoyl)methyl]-2-[4-fluoro-5-(2-methylpyrimidin-5-yl)-1,3-benzothiazol-2-yl]-2-methanesulfonyl-acetamide]	137
N#Cc1cccc(CS(=O)(=O)C(C(=O)NCC(=O)NC2CC2)c2nc3ccc(-c4ccc(F)nc4)cc3s2)c1 (stereo not shown) [Example 20, 2-[(3-cyanophenyl)methanesulfonyl]-N-[(cyclopropyl-carbamoyl)methyl]-2-[6-(6-fluoropyridin-3-yl)-1,3-benzothiazol-2-yl]acetamide]	46

Second part, the molecule after the results:

IC50 [nM]	SMILES
93	Cc1cc(-c2cc3sc(C(C(=O)NCC(=O)NC4CC4)S(=O)(=O)N4CCOCC4)nc3cc2F)cnn1 (stereo not shown) [Example 487, N-[(cyclopropyl-carbamoyl)methyl]-2-[5-fluoro-6-(6-methylpyridazin-4-yl)-1,3-benzothiazol-2-yl]-2-(morpholine-4-sulfonyl) acetamide]
116	O=C(CNC(=O)C(c1nc2c(F)cc(-c3cncnc3)cc2s1)S(=O)(=O)c1ccc(F)cc1)NC1CC1 (stereo not shown) [Example 474, N-[(cyclopropyl-carbamoyl)methyl]-2-[4-fluoro-6-(pyrimidin-5-yl)-1,3-benzothiazol-2-yl]-2-(4-fluorobenzene-sulfonyl)acetamide]
8	O=C(CNC(=O)C(c1nc2cc(F)c(-c3ccc4c(c3)CCCN4C(=O)Cc3c(F)cccc3F)cc2s1)S(=O)(=O)CCC(F)(F)F)NC1CC1 (stereo not shown) [Example 590, N-[(cyclopropyl-carbamoyl)methyl]-2-(6-{1-[2-(2,6-difluorophenyl)acetyl]-1,2,3,4-tetrahydroquinolin-6-yl}-5-fluoro-1,3-benzothiazol-2-yl)-2-(3,3,3-trifluoropropane-sulfonyl)acetamide]
15	O=C(CNC(=O)C(c1nc2cc(F)c(-c3ccc(NC(=O)OCc4ccccc4)nc3)cc2s1)S(=O)(=O)CCN1CCOCC1)NC1CC1 (stereo not shown) [Example 424, benzyl N-{5-[2-({[(cyclopropyl-carbamoyl)methyl]carbamoyl}[2-(morpholin-4-yl)ethanesulfonyl]methyl)-5-fluoro-1,3-benzothiazol-6-yl]pyridin-2-yl} carbamate]
3	O=C(CNC(=O)C(c1nc2cc(F)c(-c3ccc(NC(=O)OCC4CC4)cc3)cc2s1)S(=O)(=O)C1CC1)NC1CC1 (stereo not shown) [Example 530, cyclopropylmethyl N-(4-{2-[(cyclopropane-sulfonyl) ({[(cyclopropyl-carbamoyl)methyl]carbamoyl})methyl]-5-fluoro-1,3-benzothiazol-6-yl}phenyl) carbamate]
6	O=C(CNC(=O)C(c1nc2cc(-c3ccc(NC(=O)OCc4ccccc4)nc3)c(F)cc2s1)S(=O)(=O)CCC(F)(F)F)NC1CC1 (stereo not shown) [Example 543, benzyl N-{5-[2-({[(cyclopropyl-carbamoyl)methyl]carbamoyl}(3,3,3-trifluoropropane-sulfonyl)methyl)-6-fluoro-1,3-benzothiazol-5-yl]pyridin-2-yl} carbamate]
5	CC(=O)NCc1ccc(-c2cc3sc(C(C(=O)NCC(=O)NC4CC4)S(=O)(=O)c4cccc(Cl)c4)nc3cc2F)cc1 (stereo not shown) [Example 444, 2-(3-chlorobenzene-sulfonyl)-N-[(cyclopropyl-carbamoyl)methyl]-2-{6-[4-(acetamidomethyl)phenyl]-5-fluoro-1,3-benzothiazol-2-yl}acetamide]
27	Cc1cc(-c2cc3sc(C(C(=O)NCC(=O)NC4CC4)S(C)(=O)=O)nc3cc2OC(F)F)cnn1 (stereo not shown) [Example 604, N-[(cyclopropyl-carbamoyl)methyl]-2-[5-(difluoromethoxy)-6-(6-methylpyridazin-4-yl)-1,3-benzothiazol-2-yl]-2-methanesulfonyl-acetamide]
207	Cc1cc(-c2cc(F)c3nc(C(C(=O)NCC(=O)NC4CC4)S(=O)(=O)N(C)C)sc3c2)cnn1 (stereo not shown) [Example 490, N-[(cyclopropyl-carbamoyl)methyl]-2-(dimethyl-sulfamoyl)-2-[4-fluoro-6-(6-methypylridazin-4-yl)-1,3-benzothiazol-2-yl]acetamide]
102	COCCNC(=O)CNC(=O)C(c1nc2cc(-c3ccc(F)nc3)ccc2s1)S(=O)(=O)CCOC (stereo not shown) [Example 390, 2-[5-(6-fluoropyridin-3-yl)-1,3-benzothiazol-2-yl]-2-(2-methoxyethane-sulfonyl)-N-{[(2-methoxyethyl)carbamoyl]methyl} acetamide]
11	COCCS(=O)(=O)C(C(=O)NCC(=O)NC1CC1)c1nc2ccc(-c3ccc(C(=O)N4CCO[C@@H](C)C4)cc3)cc2s1 (stereo partly drawn) [Example 562, N-[(cyclopropyl-carbamoyl)methyl]-2-(2-methoxyethane-sulfonyl)-2-(6-{4-[(2S)-2-methyl-morpholine-4-carbonyl]phenyl}-1,3-benzothiazol-2-yl)acetamide]

same assay, conditions: EL from conditioned media of HT-1080 cells; 30 min preincubation at 37° C.

IC50 [nM]	SMILES
268	O=C(CNC(=O)C(c1nc2cc(F)c(-c3cccn(Cc4ccccc4)c3=O)cc2s1)S(=O)(=O)CCC(F)(F)F)NC1CC1 (stereo not shown) [Example 591, 2-[6-(1-Benzyl-2-oxo-1,2-dihydropyridin-3-yl)-5-fluoro-1,3-benzothiazol-2-yl]-N-[(cyclopropylcarbamoyl)methyl]-2-(3,3,3-trifluoropropanesulfonyl)acetamide]

— patent publication US10173991B2, “Sulfone amide linked benzothiazole inhibitors of endothelial lipase” (BRISTOL-MYERS SQUIBB COMPANY, priority 2014, dated 2019)
